Patent US12606533B2, “3-phenylpropylamine derivative” (DAIICHI SANKYO COMPANY, LIMITED, priority 2023, dated 2026)

Columns and labels:
[1] = tested on: NCI-H295R cells; experiment: Proliferation inhibitory action on NCI-H295R (CellTiter-Glo, 7 days); assay type: cell-based, human; details: Homo sapiens, NCI-H295R, 168 h
Method: DMSO solutions of each compound were serially diluted with DMSO using a D300e Digital Dispenser (TECAN), and added to a 384-well plate (Thermo Fisher Scientific Inc.). NCI-H295R cells were seeded in a 384-well plate at 2×10^3 cells/40 μL/well and cultured for 7 days in a 37° C., 5% CO2 incubator. […] On the first day of culture (day 0) and the seventh day of culture (day 7), 10 μL/well of CellTiter-Glo (registered trademark) 2.0 Assay (Promega) was added, and the luminescence signal was detected using a multimode plate reader (EnVision, PerkinElmer). The cell proliferation rate was calculated from the luminescence amount on the day of compound addition (CO), the luminescence amount of the compound-free group after 7 days of culture (C7), and the luminescence amount of the compound-added group (T7), based on the following formula.

[2] = molecular target: T1, SF-1 (Homo sapiens, UniProt Q13285); experiment: SF1 degradation induction in NCI-H295R SF-1-HiBiT cells (HiBiT DC50); assay type: cell-based; details: 24 hr, concentration that induces 50% degradation of SF-1
T1 construct: NCI-H295R SF-1-HiBiT cells with HiBiT tag knocked in at the endogenous SF1 locus; host or cells: NCI-H295R SF-1-HiBiT (knock-in at endogenous locus)
Method: NCI-H295R SF-1-HiBiT cells were seeded in a 384-well plate (Thermo Fisher Scientific Inc.) at 1×10^4 cells/50 μL/well and cultured at 37° C. in a 5% CO2 incubator for 24 hr. DMSO solutions of each compound were serially diluted with DMSO using a D300e Digital Dispenser (TECAN), added to a 384-well plate, and cultured in a 5% CO2 incubator at 37° C. for 24 hr. […] After completion of culture, the medium was discarded, and Nano-Glo (registered trade mark) HiBiT Lytic Detection System (Promega, Cat. No. N3040) was added at 20 μL/well and stirred with a plate mixer. Luminescence signals were then detected using a multimode plate reader (EnVision Xcite, PerkinElmer). The SF-1 protein degradation rate was calculated from the amount of luminescence (C) in the compound-free group and the amount of luminescence (T) in the compound-added group, based on the following formula.
The obtained data was analyzed using GraphPad Prism9 (GraphPad Software Inc.) or Genedata Screener (Genedata AG) to calculate the concentration that induces 50% degradation of SF-1 (DC50 value).

Row | GI50 [1] | DC50 [2] | Structure (SMILES)
1 | 62 nM | 9 nM | COc1ccc([C@]2(CCN(Cc3ccc(C4=C(F)CC(C(=O)N5CCN(Cc6ccc7c8c6CCCn8c(=O)n7C6CCC(=O)NC6=O)CC5)CC4)cc3)CC(C)(C)C(F)(F)F)CCOC(C)(C)C2)cc1 (stereo partly drawn) [BB7, 3-[7-({4-[(6-Fluoro-4′-{[{2-[(4R)-4-(4-methoxyphenyl)-2,2-dimethyltetrahydro-2H-pyran-4-yl]ethyl)(3,3,3-trifluoro-2,2-dimethylpropyl)amino]methyl}-2,3,4,5-tetrahydro[biphenyl]-4-yl)carbonyl]piperazin-1-yl}methyl)-2-oxo-5,6-dihydro-4H-imidazo[4,5,1-ij]quinolin-1(2H)-yl]piperidine-2,6-dione]
2 | 48 nM | 6.2 nM | COc1ccc([C@]2(CCN(Cc3ccc(C4=CCC(CN5CCN(C(=O)c6ccc7c(n6)n(C)c(=O)n7C6CCC(=O)NC6=O)CC5)CC4)cc3)CC(C)(C)C(F)(F)F)CCOC(C)(C)C2)cc1 (stereo partly drawn) [BC6, 3-[5-({4-[(4′-{[{2-[(4R)-4-(4-Methoxyphenyl)-2,2-dimethyltetrahydro-2H-pyran-4-yl]ethyl}(3,3,3-trifluoro-2,2-dimethylpropyl)amino]methyl}-2,3,4,5-tetrahydro[biphenyl]-4-yl)methyl]piperazin-1-yl}carbonyl)-3-methyl-2-oxo-2,3-dihydro-1H-imidazo[4,5-b]pyridin-1-yl]piperidine-2,6-dione]
3 | 57 nM | 3 nM | COc1ccc([C@]2(CCN(CC(C)(C)C(F)(F)F)C[C@H]3CC[C@H](c4ccc(NC(=O)C5CC(Nc6ccc7c(c6)n(C)c(=O)n7C6CCC(=O)NC6=O)C5)cc4)CC3)CCOC(C)(C)C2)cc1 (stereo partly drawn) [BD6, 3-{[1-(2,6-Dioxopiperidin-3-yl)-3-methyl-2-oxo-2,3-dihydro-1H-benzimidazol-5-yl]amino)-N-[4-(trans-4-{[{2-[(4R)-4-(4-methoxyphenyl)-2,2-dimethyltetrahydro-2H-pyran-4-yl]ethyl}(3,3,3-trifluoro-2,2-dimethylpropyl)amino]methyl}cyclohexyl)phenyl]cyclobutanecarbox amide]
4 | 124 nM | 2.6 nM | COc1ccc([C@]2(CCN(CC3CC=C(c4ccc(NC(=O)C5CC(Nc6ccc7c(c6)n(C)c(=O)n7C6CCC(=O)NC6=O)C5)c(F)c4)CC3)CC(C)(C)C(F)(F)F)CCOC(C)(C)C2)cc1 (stereo partly drawn) [BE5, 3-{[1-(2,6-Dioxopiperidin-3-yl)-3-methyl-2-oxo-2,3-dihydro-1H-benzimidazol-5-yl]amino}-N-(3-fluoro-4′-{[{2-[(4R)-4-(4-methoxyphenyl)-2,2-dimethyltetrahydro-2H-pyran-4-yl]ethyl}(3,3,3-trifluoro-2,2-dimethylpropyl)amino]methyl}-2′,3′,4′,5′-tetrahydro[biphenyl]-4-yl)cyclobutanecarboxamide]
5 | 75 nM | 10 nM | COc1ccc([C@]2(CCN(Cc3ccc(C4=CC[C@H](CN5CCN(C(=O)c6ccc7c8c6CCCn8c(=O)n7[C@H]6CCC(=O)NC6=O)CC5)CC4)cc3)CC(C)(C)C(F)(F)F)CCOC(C)(C)C2)cc1 [BF6, (3S)-3-{7-[(4-{[(4R)-4′-{[{2-[(4R)-4-(4-Methoxyphenyl)-2,2-dimethyltetrahydro-2H-pyran-4-yl]ethyl}(3,3,3-trifluoro-2,2-dimethylpropyl)amino]methyl}-2,3,4,5-tetrahydro[biphenyl]-4-yl]methyl}piperazin-1-yl)carbonyl]-2-oxo-5,6-dihydro-4H-imidazo[4,5,1-ij}quinolin-1(2H)-yl}piperidine-2,6-dione]
6 | 84 nM | 9.2 nM | COc1ccc([C@]2(CCN(Cc3ccc(C4=CC[C@H](CN5CCN(C(=O)c6ccc7c8c6CCCn8c(=O)n7[C@@H]6CCC(=O)NC6=O)CC5)CC4)cc3)CC(C)(C)C(F)(F)F)CCOC(C)(C)C2)cc1 [BG5, (3R)-3-{7-[(4-{[(4R)-4′-{[{2-[(4R)-4-(4-Methoxyphenyl)-2,2-dimethyltetrahydro-2H-pyran-4-yl]ethyl}(3,3,3-trifluoro-2,2-dimethylpropyl)amino]methyl}-2,3,4,5-tetrahydro[biphenyl]-4-yl]methyl}piperazin-1-yl)carbonyl]-2-oxo-5,6-dihydro-4H-imidazo[4,5,1-ij]quinolin-1(2H)-yl}piperidine-2,6-dione]
7 | 79 nM | 7.7 nM | COc1ccc([C@]2(CCN(Cc3ccc(C4=CCC(C(=O)N5CCC(N(C)c6ccc7c8c6CCCn8c(=O)n7C6CCC(=O)NC6=O)CC5)CC4)c(F)c3)CC(C)(C)C(F)(F)F)CCOC(C)(C)C2)cc1 (stereo partly drawn) [BH5, 3-{7-[{1-[(2′-Fluoro-4′-{[{2-[(4R)-4-(4-methoxyphenyl)-2,2-dimethyltetrahydro-2H-pyran-4-yl]ethyl}(3,3,3-trifluoro-2,2-dimethylpropyl)amino]methyl}-2,3,4,5-tetrahydro[biphenyl]-4-yl)carbonyl]piperidin-4-yl}(methyl)amino]-2-oxo-5,6-dihydro-4H-imidazo[4,5,1-ij]quinolin-1(2H)-yl}piperidine-2,6-dione]
8 | 79 nM | 11 nM | COc1ccc([C@]2(CCN(Cc3ccc(C4=CC[C@H](CN5CCN(C(=O)c6ccc7c(c6)n(C)c(=O)n7C6CCC(=O)NC6=O)CC5)CC4)cc3)CC(C)(C)C(F)(F)F)CCOC(C)(C)C2)cc1 (stereo partly drawn) [BI2, 3-{5-[(4-{[(4R)-4′-{[{2-[(4R)-4-(4-Methoxyphenyl)-2,2-dimethyltetrahydro-2H-pyran-4-yl]ethyl)(3,3,3-trifluoro-2,2-dimethylpropyl)amino]methyl}-2,3,4,5-tetrahydro[biphenyl]-4-yl]methyl}piperazin-1-yl)carbonyl]-3-methyl-2-oxo-2,3-dihydro-1H-benzimidazol-1-yl}piperidine-2,6-dione]
9 | 97 nM | 17 nM | COc1ccc([C@]2(CCN(Cc3ccc(C4=CCC(CN5CCN(C(=O)c6cc7c(cn6)n(C6CCC(=O)NC6=O)c(=O)n7C)CC5)CC4)cc3)CC(C)(C)C(F)(F)F)CCOC(C)(C)C2)cc1 (stereo partly drawn) [BJ6, 3-[6-({4-[(4′-{[{2-[(4R)-4-(4-Methoxyphenyl)-2,2-dimethyltetrahydro-2H-pyran-4-yl]ethyl}(3,3,3-trifluoro-2,2-dimethylpropyl)amino]methyl}-2,3,4,5-tetrahydro[biphenyl]-4-yl)methyl]piperazin-1-yl}carbonyl)-1-methyl-2-oxo-1,2-dihydro-3H-imidazo[4,5-c]pyridin-3-yl]piperidine-2,6-dione]
10 | 43 nM | 3.1 nM | COc1ccc([C@]2(CCN(Cc3ccc(C4=CC[C@@H](C(=O)N5CCC(Nc6ccc7c8c6CCCn8c(=O)n7C6CCC(=O)NC6=O)CC5)CC4)c(F)c3)CC(C)(C)C(F)(F)F)CCOC(C)(C)C2)cc1 (stereo partly drawn) [BL4, 3-{7-[(1-{[(4S)-2′-Fluoro-4′-{[{2-[(4R)-4-(4-methoxyphenyl)-2,2-dimethyltetrahydro-2H-pyran-4-yl]ethyl)(3,3,3-trifluoro-2,2-dimethylpropyl)amino]methyl}-2,3,4,5-tetrahydro[biphenyl]-4-yl]carbonyl}piperidin-4-yl)amino]-2-oxo-5,6-dihydro-4H-imidazo[4,5,1-ij]quinolin-1(2H)-yl}piperidine-2,6-dione]
11 | 22 nM | 2.2 nM | COc1ccc([C@]2(CCN(Cc3ccc(C4=CC[C@H](C(=O)N5CCC(Nc6ccc7c8c6OCCn8c(=O)n7C6CCC(=O)NC6=O)CC5)CC4)c(F)c3)CC(C)(C)C(F)(F)F)CCOC(C)(C)C2)cc1 (stereo partly drawn) [BM10, 3-{7-[(1-{[(4R)-2′-Fluoro-4′-{[{2-[(4R)-4-(4-methoxyphenyl)-2,2-dimethyltetrahydro-2H-pyran-4-yl]ethyl)(3,3,3-trifluoro-2,2-dimethylpropyl)amino]methyl}-2,3,4,5-tetrahydro[biphenyl]-4-yl]carbonyl}piperidin-4-yl)amino]-2-oxo-4,5-dihydroimidazo[1,5,4-de][1,4]benzoxazin-1(2H)-yl}piperidine-2,6-dione]
12 | 31 nM | 2.3 nM | COc1ccc([C@]2(CCN(Cc3ccc(C4=CC[C@@H](C(=O)N5CCC(Nc6ccc7c8c6OCCn8c(=O)n7C6CCC(=O)NC6=O)CC5)CC4)c(F)c3)CC(C)(C)C(F)(F)F)CCOC(C)(C)C2)cc1 (stereo partly drawn) [BN2, 3-{7-[(1-{[(4S)-2′-Fluoro-4′-{[{2-[(4R)-4-(4-methoxyphenyl)-2,2-dimethyltetrahydro-2H-pyran-4-yl]ethyl}(3,3,3-trifluoro-2,2-dimethylpropyl)amino]methyl}-2,3,4,5-tetrahydro[biphenyl]-4-yl]carbonyl}piperidin-4-yl)amino]-2-oxo-4,5-dihydroimidazo[1,5,4-de][1,4]benzoxazin-1(2H)-yl}piperidine-2,6-dione]
